Reference: US9657260B2, “Method and system for continous monitoring of toxicity” (Yissum Research Development Company of The Hebrew …, priority 2014, dated 2017)
Several values for one entry are separate records, joined by “and”; a condition that tells them apart may be missing. Identical values can stand only once. Entries after “also recorded” stand apart in the source; their conditions may differ.

Assays:
HepG2/C3A cells [1] = assay: Electrochemical glucose and lactate sensing at the bioreactor outflow; format: cell-based, human; conditions: 50 μM; for lactate over glucose ratio reached after exposure: before exposure 1.3 (rotenone), 1.2 (Troglitazone)
Protocol: Cells respond to mitochondrial dysfunction by adapting their metabolic response to circumvent oxidative phosphorylation. To track this response electrochemical sensors for glucose and lactate were attached to bioreactor outflow in a PMMA housing with 16 μl dead volume (FIG. 5 A-C). Samples were collected sequentially using a computer controlled microfluidic switchboard (FIG. 5D). Micromechanical valves (FIG. 5E) introduced a sequence of (1) washing buffer, (2) air bubble interface, and (3) a bioreactor sample every hour. Proof of principle was shown with 50 μM rotenone, a direct mitochondrial C1 inhibitor, causing an 80% loss in respiration (FIG. 5F). […] Importantly, the system is sensitive enough to detect minute signals and off target effects. […] Lactate over glucose ratio increases slightly from 1.2 to 1.8, showing a shift toward glycolysis (FIG. 5I).

HepG2/C3A cells [2] = assay: in vitro; conditions: for % of normal respiration: within 60 minutes (fast phase); for time to onset of mitochondrial (respiratory) damage: human
Protocol: (§1) Reactor Seeding. The following steps of cell seeding and reactor assembly were carried out in a sterile hood. Prior to seeding cells into the reactor, the PDMS-based well unit and all tubings were cleaned and sterilized with 70% EtOH, washed with ddH2O, dried and subsequently exposed to UV light for at least 30 min. The cells were detached from the tissue culture substrate with trypsin-EDTA (Biochrom, Berlin, Germany), counted, centrifuged at 280 rpm for 5 min at 4° C. and resuspended with 100 μl of collagen type I solution to a final density of 4×10^6 cells per device. During resuspension of the cells, 300 μg to 500 μg oxygen sensing beads (CPOx-50-RuP, Colibri Photonics, Potsdam, Germany) were added, resulting in at least ten to 20 beads per microwell after completion of the cell seeding protocol. The collagen type I solution was made of 560 μl ddH2O, 100 μl PBS (10×), 6.25 μl of 1 N NaOH and 333 μl of collagen type I (3.6 mg ml^−1, BD Biosciences, San Jose, Calif., USA). The PDMS microwells were primed for 5 min on ice with this solution in order to eliminate air bubbles from the wells. Subsequently, 100 μl of collagen type I suspension containing cells and oxygen-sensing beads was placed on top of the PDMS-based well unit, thus covering all nine microwells. The unit was kept in a sterile 50.8 mm petri dish placed on ice for 5 min in order to allow the cells to sediment into the wells. The low temperature prevented premature collagen polymerization and the induction of cellular stress response pathways. Afterwards, excess cell and microbead suspension was gently but thoroughly wiped off the PDMS-based well unit using a sterile glass coverslip (FIG. 2C) leading to a concentration of 100,000 cells/well. The inoculated well unit was then incubated for 5 min at 37° C. in a humidified cell incubator (see above) at 5% CO2 in order to polymerize the collagen and by this immobilize the cells and microbeads in the wells. Following polymerization, the well unit, loaded with the cells, was immersed in 5 ml of MEM medium (composition see above) for 20 min at 37° C. in a cell incubator (see above). Subsequently, the PDMS-based well unit was transferred into the bioreactor. After sealing, the bioreactor was placed into the climate control chamber (37° C., ACUO2, Evotec, Germany) of an inverted fluorescence microscope (IX81, Olympus, Japan) and perfused with MEM (composition see above) supplemented with 10 mM HEPES with a flow rate of 10 μl min^−1 using a syringe pump (Harvard Apparatus, USA). The automated and motorized microscope stage was equipped with a holder for three microreactors, allowing for performing three experiments simultaneously.
(§2) Chemical compound injection. […] Succinate as the substrate for complex II was used as an electron donor for the putatively toxicologically affected complex I in the mitochondrial electron transfer system (ETS), whereas TMPD was used to donate electrons to cytochrome c in order to test for a putative toxicological effect on complex III in the ETS. Ascorbate was used to maintain TMPD in a reduced state. The cytotoxic effects were evaluated by real-time monitoring of the change in oxygen consumption and for subsequent confirmation of the toxicological endpoints also by specific conventional staining assays (see below).
(§3) Oxygen measurement. Real-time oxygen measurements were performed optically by means of phosphorescence quenching. Biocompatible polystyrene microbeads with a diameter of 50 μm equipped with a ruthenium-phenanthroline-based phosphorescence dye (CPOx-50-RuP, Colibri Photonics, Potsdam, Germany) were used as microprobes and were coimmobilized with the cells (FIG. 1D) in the collagen matrix during reactor seeding (described above). The electronic measurement system (OPAL, Colibri Photonics, Germany) comprises a control module, an LED as the excitation source and a detector unit (FIG. 1A).

HeLa cells = assay: Real-time oxygen uptake of HeLa cells in the bioreactor; format: cell-based, human; conditions: for effect of ascorbate and TMPD on the loss of oxygen uptake: 10 μM, preincubation with 2 mM ascorbate and 0.5 mM TMPD
Description: Chemical compound injection.
Oxygen measurement. […] Thus, the camera port was kept available for imaging.

in vitro = conditions: human
Protocol: as §1, §2, §3

HepG2/C3A spheroids = format: cell-based, human
Protocol: Quantitative Real Time Polymerase Chain Reaction (qRT-PCR). RNA was isolated and purified utilizing Macherey-Nagel NucleoSpin RNA II kit according to manufacturer instructions. RNA concentration and purity was determined using NanoDrop ND-1000 spectrophotometer (Thermo Fisher Scientific, USA). cDNA was synthesized from 1 μg RNA sample using qScript cDNA SuperMix (Quanta BioSciences, USA) according to the manufacturer protocol. Gene expression analysis was carried out utilizing KAPA SYBR FAST Universal 2X qPCR Master Mix (Kapa Biosystems, Boston, USA) on BioRad CFX96 Real-Time System (New South Wales, Australia), according to the manufacturer protocol. Gene transcription was evaluated using the ΔΔCt method normalized to 60S ribosomal protein L32 (RPL32) or ubiquitin C (UBC).

HepG2/C3A cells [3] = assay: HCS LipidTOX staining for steatosis and phospholipidosis; format: cell-based, human; conditions: 24 hr exposure to amiodarone (200 pM as printed elsewhere in the source)
Protocol: Steatosis and phospholipidosis were evaluated using the HCS LipidTOX™ system (Life Technologies, USA) according to manufacturer directions. Briefly, cells were incubated with green neutral lipid and red phospholipidosis dyes and counterstained with 1 μg/mL Hoechst 33342 for 30 min, and washed with PBS. LipidTOX green and red staining intensity were normalized to number of Hoechst-labeled nuclei.

[4] = HeLa cells, 12.5 mM acetaminophen

For `C=C(C)[C@H]1Cc2c(ccc3c2O[C@@H]2COc4cc(OC)c(OC)cc4[C@@H]2C3=O)O1` [rotenone], the “glucose uptake after 6 hours” value (HepG2/C3A cells [1]; after 6 hours, shift to glutaminolysis) was “loss of glucose uptake”, the “lactate over glucose ratio reached after exposure” value (HepG2/C3A cells [1]) was 2.5 and the loss in respiration (HepG2/C3A cells [2]; 50 μM) was 80%.

For `CC(=O)Nc1ccc(O)cc1` [acetaminophen], the “mitochondrial respiration immediately after exposure” value (HeLa cells; [4]) was “identical rapid loss of mitochondrial respiration; also recorded: identical immediate loss of mitochondrial respiration”, the “second dose-independent phase of toxicity” value (HeLa cells; [4]) was “failed to display the second dose-independent phase of toxicity; also recorded: absent in HeLa cells” and the “time at which the rapid loss of respiration ends” value (HeLa cells; [4]) was 60 min. The “effect of ascorbate and TMPD on the toxic response” value (HeLa cells; HeLa, 12.5 mM acetaminophen, 2 mM ascorbate and 0.5 mM TMPD) was “eliminated the toxicity; also recorded: abrogated the toxic response”, the “effect of succinate on the toxic response” value (HeLa cells; HeLa, 12.5 mM acetaminophen, preincubation with 20 mM succinate) was “no effect on the toxicity; also recorded: did not affect HeLa response” and the “% of normal respiration” value (HepG2/C3A cells [2]; 8 mM acetaminophen) was 70%. The “% of normal respiration” value (HepG2/C3A cells [2]; 12.5 mM acetaminophen) was 55% and the “% of normal respiration” value (HepG2/C3A cells [2]; 16 mM acetaminophen) was 25%.

With `Cc1c(C)c2c(c(C)c1O)CCC(C)(COc1ccc(CC3SC(=O)NC3=O)cc1)O2` (centres unmarked) [Troglitazone] the “lactate over glucose ratio reached after exposure” value (HepG2/C3A cells [1]) was 1.8 and the CC50 (in vitro) was 300 µM.

For `C[S+](C)[O-]` [DMSO], the cell viability (HepG2/C3A spheroids) was “little affect on cell viability”, the “increase in PXR expression” value (HepG2/C3A spheroids) was 8 fold and the “increase in MRP3 expression” value (HepG2/C3A spheroids; 1%, 28 days) was 10 fold.

With Antimycin A the “effect of ascorbate and TMPD on the loss of oxygen uptake” value (HeLa cells; HeLa) was “abrogated” and the “effect of ascorbate and TMPD on the loss of oxygen uptake” value (HeLa cells; HeLa, listed as antimycin A) was “abrogated the toxic response”.

With `CCCCc1oc2ccccc2c1C(=O)c1cc(I)c(OCCN(CC)CC)c(I)c1` [amiodarone] the “increase in intracellular lipids (steatosis)” value (HepG2/C3A cells [3]) was 2.1 fold and 2 fold and > 2 fold, the increase in phospholipidosis (HepG2/C3A cells [3]) was 2.4 fold and 2.5 fold and > 2 fold and the “time to onset of mitochondrial (respiratory) damage” value (shortened to “time to onset of mitochondrial”) (HepG2/C3A cells [2]; 200 µM) was 15 h. The “time to onset of mitochondrial” value (HepG2/C3A cells [2]; 500 µM) was 6 h and the “time to onset of mitochondrial” value (HepG2/C3A cells [2]; 1000 µM) was 2 h.
